Source: patent publication US20160103138A1, “METHODS FOR ANALYZING ELASTIC FIBER INJURY MARKERS AND DIAGNOSIS OF DISEASES ASSOCIATED WITH ELASTIC FIBER INJURY” (priority 2013, published 2016)

Legend:
[1] = system: desmosine and isodesmosine (DI) in plasma (elastin degradation); experiment: Effect of alpha-1 antitrypsin augmentation therapy on DI levels in plasma of AATD patients; format: in vivo, human; conditions: for change in DI in plasma from baseline: 11 patients, intravenous replacement
Excerpt: (§1) There were 4 sources of body fluid samples analyzed: 1) plasma samples from 47 patients receiving alpha-1 antitrypsin protein from human blood sources, commercially available, compared with 50 AATD patients not on AAT augmentation and 50 normal subjects; 2) 11 patients with homozygous severe AATD who provided plasma samples before the start of IV therapy and then 12 and 24 weeks later; 3) 10 patients with homozygous AATD receiving IV replacement provided BALF at 12 weeks (the dose administered was 60 mg/kg body weight each week in the above patient groups); and 4) patients received a recombinantly produced AAT which was administered as an aerosol for 8 weeks. (Spencer et al., 2005) (the administered dose was 250 mg of aerosolized transgenic AAT each day). Eight patients provided BALF, 12 patients provided plasma samples, and 5 patients provided urine samples at baseline and after 8 weeks of aerosol therapy.
(§2) The following 3 methods were used to define the alpha-1 genomes: 1) genotype by allelic discrimination using TaqMan (S&Z alleles), ABI 7500 Fast Real-time PCR System; 2) AAT Level by Immunogenic assay, Dade Behring Nephelometer BN II and 3) phenotyping by isoelectric focusing, Pharmacia Biotech Multiphore II. The method of analysis for desmosine and isodesmosine (DI) in plasma, BALF and urine is as described. (Ma et al., 2011) The content of DI in BALF was calculated as the concentration of DI per ml of BALF using urea as a marker of dilution. (Rennard et al., 1986).
(§3) High performance liquid chromatography and tandem mass spectrometry as described (Ma et al., 2011) were used.
(§4) The T-test was used to compare the effects of augmentation therapy on the large patient cohorts. The paired T-test was used to compare the changes before and after therapy in individuals. The linear regression was used to determine the relationships of age to levels of DI.

[2] = system: desmosine and isodesmosine (DI) in epithelial lining fluid obtained by BALF (elastin degradation); experiment: Effect of alpha-1 antitrypsin augmentation therapy on DI levels in BALF of AATD patients; format: in vivo, human
Excerpt: as §1
as §2, with “The method of analysis for desmosine and isodesmosine (DI) in plasma, BALF and urine is as described.” left out, “(Rennard et al., 1986).” left out

[3] = system: urinary desmosine and isodesmosine (DI); experiment: Effect of aerosol alpha-1 antitrypsin augmentation therapy on urinary DI (free and total); format: in vivo, human; conditions: before vs after aerosol augmentation therapy
Excerpt: as §1, §2, §3, §4

[4] = 6N HCl (Ma, S. et al., 2011); cited from earlier work
urinary desmosine = conditions: cited from earlier work
[5] = Stability of DES-d4 (IS) in 6N HCl at 110° C., recovery by LC-MS/MS; format: physicochemical; conditions: heated at 110° C. for 24, 48, and 72 hours
Protocol: Step 1: Acid hydrolysis: DES-d4 IS (5 ng) was added to the analytical samples (0.5 ml) in a glass vial with equal volumes of concentrated HCl (37%). Air in the vial was displaced with nitrogen, and was heated at 110° C. for 24 hours. The hydrolyzed sample was filtered and evaporated to dryness.
Step 3: LC-MS/MS analysis: A TSQ Discovery electrospray tandem mass spectrometer (Thermo Fisher Scientific) was used for LC-MS/MS analysis. HPLC conditions used were a 2 mm×150 mm dC18 (3 μm) column (Waters, Mass.) and the mobile phase A (7 mM HFBA/5 mM NH4Ac in water) and B (7 mM HFBA/5 mM NH4Ac in 80% acetonitrile) were programmed linearly from 100% A to 82% A in 12 m. Quantitation was performed by selected reaction monitoring (SRM) of the transitions of both DES and IDS (m/z 526 to m/z 481+m/z 397) and the IS (m/z 530 to m/z 485), with collision energy set at 33 V for both transitions, collision gas pressure was 1.5 mTorr, tube lens at 132 V, with sheath gas pressure set at 45 and auxiliary gas pressure at 6 units and ion spray voltage at 3.8 kV. The scan time was set at 1.00 ms and both quadrupoles (Q1 and Q3) were at 0.7 Da FWHM.
The stability of DES-d4 and reliability during use as the IS for the isotope dilution LC-MS/MS analysis of DES and IDS were examined. […]

[6] = system: leukotriene B-5, interleukin-8 and neutrophil elastase in sputum; conditions: after weeks of supplementation therapy with I.V. AAT (Stockley et al., 2002); cited from earlier work

In the case of “aerosolized transgenic AAT: recombinantly produced AAT which was administered as an aerosol for 8 weeks”, the “mean decrease of DI in plasma” value ([1]; 12 patients, before vs after 8 weeks aerosol augmentation therapy (250 mg each day), not statistically significant (p=0.1675)) is reported as 6.5%, the “mean increase in DI in plasma” value ([1]; the 3 of 12 patients with increase, aerosol augmentation therapy, not statistically significant) is reported as 4.3% and the “average decrease of DI in plasma” value ([1]; the 9 of 12 patients with reduction, aerosol augmentation therapy, p=0.0142) is reported as 12.1%. The “mean reduction of DI levels in BALF” value ([2]; 8 patients, AAT by aerosol administration, 8 weeks, p=0.0078) was −58.5%, the “reduction in the free component of DI excretion in urine” value ([3]; 4 of the 5 subjects) was 0.1-13.0% and the “average reduction of percent of free DI over total DI excretion in urine” value ([3]; 5 subjects, p=0.0625) was 21.6%. The “increase in excretion of free DI in urine” value ([3]; one of the 5 subjects) was 75.3%.
In the case of `N[C@@H](CCCc1c(CC[C@H](N)C(=O)O)c[n+](CCCC[C@H](N)C(=O)O)cc1CC[C@H](N)C(=O)O)C(=O)[O-]` [DES, Desmosine], the “stability during acid hydrolysis (in words)” value [4] is listed as “stable”.
For “Prolastin: AAT supplementation product (Bayer Company)”, the “urinary desmosine excretion during supplementation vs run in” value (urinary desmosine; 12 AATD subjects, weekly 60 mg/kg for 4 weeks (Gottlieb et al., 2000)) is given as “unchanged”.
With `[2H]C([2H])(C[C@H](N)C(=O)O)C([2H])([2H])c1c(CC[C@H](N)C(=O)O)c[n+](CCCC[C@H](N)C(=O)O)cc1CC[C@H](N)C(=O)O` [DES-d4] the “stability of DES-d4 under acid hydrolysis (in words)” value [5] was “stable with nearly complete recovery”.
For “AAT: alpha-1 antitrypsin protein from human blood sources, commercially available, given intravenously as augmentation therapy”, the “change in DI in plasma from baseline” value ([1]; 12 weeks of therapy) was −13.9%, the “change in DI in plasma from baseline” value ([1]; 24 weeks of therapy) was −20.3% and the “mean level of DI in plasma” value ([1]; AATD patients receiving augmentation therapy (IV, 60 mg/kg each week), n=50, no augmentation 0.36, normal 0.22) was 0.25 ng/mL. The “plasma levels of DI, mean±SD” value ([1]; FIG. 7, augmentation group, n=50, no augmentation 0.36±0.01, normal 0.22±0.04) was 0.25±0.01, the “overall average change of DI in BALF” value ([2]; 10 patients, before vs 12 weeks after IV augmentation therapy, p=0.0273) was −37% and the “drop of mean post-treatment urinary desmosine from pre-treatment levels” value (urinary desmosine; two AATD patients, monthly infusions of 260 mg/kg, followed 18 months (Stone et al., 1995)) was “exceeded 35%”. The “levels of leukotriene B-5, interleukin-8 and neutrophil elastase in sputum” value [6] was “reduced levels”.
In the case of `NC(CCCC[n+]1cc(CCC(N)C(=O)O)cc(CCC(N)C(=O)O)c1CCCC(N)C(=O)O)C(=O)O` (stereo not drawn) [IDS, isodesmosine], the “stability during acid hydrolysis (in words)” value [4] is listed as “stable”.
